From patent US12377095B2, “Use of ligustrazine nitrone derivatives in treatment and prevention of diabetic complication diseases” (QINGDAO HAILAN PHARMACEUTICALS CO., LTD., priority 2019, dated 2025)

Columns and labels:
STZ-induced DKD rats [1] = experiment: Serum iron content of STZ-induced DKD rats; format: in vivo, rat
Protocol: Before the injection, the rats were fasted for 12 hours without water. After weighing, the rats were injected with 55 mg/kg STZ intraperitoneally (STZ needs to be injected quickly, and the injection was completed within 10 minutes), and then returned to the cage to ensure that the rats had sufficient drinking water for 24 hours. Rats were injected with an equal volume of citrate buffer (pH 4.5). After STZ injection for 3 weeks, blood was collected from the tail vein, and blood glucose ≥16.7 mmol/L was used as the criteria for the standard of the rats.
The route of administration is intragastric administration. TBN was administered twice a day (fixed at 9:00-10:00 am and 3:00-4:00 pm), and Losartan was administered once a day (fixed at 9:00-10:00 am) continuously for 6 weeks.
At the end of the experiment, after rats were anesthetized, blood was taken from the abdominal aorta. After standing for 1 hour, the rats were centrifuged at 3000 rpm for 10 minutes and stored in aliquots at −80° C. An automatic biochemical analyzer was used to detect the content of iron ions in the serum.

STZ-induced SHR rats = experiment: Serum EPO content in STZ-induced SHR rats; format: in vivo, rat; details: TBN group (T60), 60 mg/kg
db/db mice = experiment: Urinary albumin/creatinine ratio in db/db mice, TBN alone and in combination; format: in vivo, mouse; details: TBN 30 mg/kg, Losartan 10 mg/kg, TBN+Losartan (FIG. 17)
Protocol: Grouping and dosing are the same as in Example 9. At the end of the experiment, 24 h urine samples were collected, antiseptic treatment was performed to all urine specimens with toluene, 24 h urine was centrifuged to remove precipitation and placed in a 1.5 mLEP tube and then placed in a refrigerator at −20° C. for later use, urinary albumin content was measured with ELISA kits, urine creatinine levels were detected by use of an automatic biochemical analyzer, and the ratio of both was calculated. The results as shown in FIG. 19 indicate that the ratio of urinary microalbumin to creatinine in DB/DB group was higher than that in wt/wt group, and the db/db mice 24 h urinary albumin creatinine ratio decreased in TBN group, losartan group and TBN-losartan combination group. Referring to this method, metformin (150 mg/kg, qd), and HIF-PH inhibitor roxadustat (10 mg/kg, once 2 every days) were given via oral administration, the combination groups of TBN with respectively metformin and roxadustat also reduce 24 h urinary albumin creatinine ratio.

[2] = test system: diabetic neuropathy model rats; experiment: Thermal radiation stimulation in diabetic neuropathy model rats; format: in vivo, rat; details: TBN 30 mg/kg twice a day, 4 weeks of administration (8 weeks after STZ), P<0.05
Protocol: Modeling method: STZ was weighed and transferred to a centrifuge tube, wrapped with aluminum foil, kept away from light, and stored at −20° C. STZ sodium citrate solution is prepared when it is in need to use. The rats were fasted without water for 12 hours before injection. After weighing, the rats were injected with 55 mg/kg STZ intraperitoneally (STZ needs to be injected quickly, and the injection was completed within 10 minutes), and then returned to the cage to ensure that the rats had sufficient drinking water for 24 hours. Rats were injected with an equal volume of citrate buffer (pH 4.5). Four weeks after STZ injection, blood was collected from the tail vein, and the rats with blood glucose less than 16.7 mmol/L were eliminated; the taillick threshold temperature was increased, and the mechanical withdrawal threshold (MWT) was decreased, as the standard of a successful DPN model.
The animals were randomly divided into 3 groups (n=7), namely the normal control group, the model group, and the TBN (30 mg/kg) group. The normal group and the model group were injected with an equal volume of normal saline, and TBN was administered twice a day (fixed at 9:00-10:00 am and 3:00-4:00 pm), continuously for 4 weeks. […]

[3] = test system: cisplatin-induced C57BL/6J mice; experiment: Serum erythropoietin in cisplatin-induced renal anemia C57BL/6J mice; format: in vivo, mouse
Protocol: Modeling method: the animals were randomly divided into 5 groups, i.e., normal control group, model group, three treatment groups, wherein the normal control group was injected with equal volume of normal saline, the model group and three treatment groups were intraperitoneally injected with cisplatin (CDDP) 5 mg/kg once a week, for 4 weeks.
The route of administration is intragastrical. TBN is administered twice a day (fixed at 9:00-10:00 am and 3:00-4:00 pm), and Roxadustat is administered once every two days (fixed at 9:00-10:00 am), for 4 weeks.
At the end of the experiment, after rats were anesthetized, the blood was taken from the abdominal aorta, allowed to stand for 1 hour, centrifuged at 3000 rpm for 10 min, and stored in aliquots at −80° C. The content of erythropoietin in the serum was detected by using of a kit. After the administration, compared with the model group, the TBN treatment groups can increase the expression of erythropoietin to varying degrees.

STZ-induced DKD rats [4] = experiment: Body weight, water intake and food intake of STZ-induced DKD rats; format: in vivo, rat
Protocol: SD rats (200±10 g) were used as model animals, which were fasted for 12 h before injection. STZ was dissolved in citrate buffer at 1% concentration, and rats were fasted and intraperitoneally injected with 55 mg/kg STZ and placed in the cage, the rats being ensured with adequate water intake for 24 h. STZ injections need to be fast and complete within 10 minutes of injection. The normal control group was injected with an equal volume of pH 4.5 citric acid-sodium citrate buffer. The state of the animals (multiple drinking and polyuria) was observed. After 3 weeks of STZ injection, blood was collected from the tail vein, and fasting blood glucose ≥16.7 mmol/L was measured as the standard for diabetic nephropathy in rats.
DKD rats were randomly assigned to 6 groups and given with different drugs. After 6 weeks of administration, the experiment was terminated and the protective effect of the drug on DKD rats was observed.
The general condition and body weight changes after rat modeling were observed weekly. The general conditions include the activity, mental state, coat color, diet, water intake and urine volume of the rats. The amount of water and the amount of feed were recorded weekly.

SMILES: Cc1nc(C)c(/C=[N+](\[O-])C(C)(C)C)nc1C [TBN]
- increase in serum iron content (STZ-induced DKD rats [1]; TBN high dose group, P<0.05 vs Vehicle): the most significant
- serum iron content (STZ-induced DKD rats [1]; each administration group of TBN (10, 30, 60 mg/kg), dose-dependent): increased
- content of EPO in serum vs model group (STZ-induced SHR rats): significantly increased
- 24 h urinary albumin creatinine ratio (db/db mice): decreased
- pain threshold of heat stimulation (hindlimb lifting latency) vs model group [2]: increase
- expression/content of erythropoietin vs model group ([3]; TBN treatment groups (30, 60 mg/kg), to varying degrees, dose dependence): increase
- efficacy on EPO content compared with positive control drug ([3]; high-dose group (60 mg/kg) vs Roxadustat 10 mg/kg): stronger than that of the positive control drug
- body weight (STZ-induced DKD rats [4]; STZ-induced diabetic nephropathy rats, FIG. 1a): no effect
- water intake (STZ-induced DKD rats [4]; vs model group, FIG. 1b): significantly lower
- food intake (STZ-induced DKD rats [4]; vs model group, FIG. 1c): significantly lower
